This note sets out measurements from patent publication US20240009191A1, “METHOD AND COMPOSITION FOR THE TREATMENT OF DISEASE” (DIMERIX BIOSCIENCE PTY LTD, priority 2019, published 2024).

The target of assay [1] is T1, AT1R-CXCR2 heteromer (Homo sapiens, UniProt P25025+P30556).
T1 sequence (P25025 1-360): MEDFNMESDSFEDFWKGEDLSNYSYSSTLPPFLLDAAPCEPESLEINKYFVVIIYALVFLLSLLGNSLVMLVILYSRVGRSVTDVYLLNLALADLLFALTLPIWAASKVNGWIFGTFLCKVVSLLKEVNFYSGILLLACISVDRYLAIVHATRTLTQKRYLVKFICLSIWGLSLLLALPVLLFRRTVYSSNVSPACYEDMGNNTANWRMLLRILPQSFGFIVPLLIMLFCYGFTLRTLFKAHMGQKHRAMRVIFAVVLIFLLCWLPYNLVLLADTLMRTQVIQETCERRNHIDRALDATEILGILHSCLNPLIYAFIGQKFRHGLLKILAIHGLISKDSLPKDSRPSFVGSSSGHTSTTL
T1 sequence (P30556 1-359): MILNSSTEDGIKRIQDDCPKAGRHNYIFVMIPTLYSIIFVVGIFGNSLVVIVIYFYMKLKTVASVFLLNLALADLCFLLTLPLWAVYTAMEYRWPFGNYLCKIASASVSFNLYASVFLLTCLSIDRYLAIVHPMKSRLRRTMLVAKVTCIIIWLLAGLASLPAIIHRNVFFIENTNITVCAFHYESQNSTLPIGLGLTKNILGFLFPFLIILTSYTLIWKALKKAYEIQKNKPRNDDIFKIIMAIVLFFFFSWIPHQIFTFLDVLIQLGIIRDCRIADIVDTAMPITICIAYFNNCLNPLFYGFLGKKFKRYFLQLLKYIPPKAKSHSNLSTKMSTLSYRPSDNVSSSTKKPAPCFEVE
As to the kind of experiment: BRET Gi coupling (Receptor-HIT), CXCR2/Rluc8, Venus/mGsi and HA-AT1R, HEK293FT cells. The class given is cell-based. As for the experimental part:
HEK293FT cells were seeded in 6-well plates at a density of approximately 700,000 cells/well and maintained at 37° C., 5% CO2 in Complete Media (DMEM containing 0.3 mg/ml glutamine, 100 IU/ml penicillin and 100 μg/ml streptomycin (Gibco/Thermo Fisher)) supplemented with 10% fetal calf serum (FCS; Bovogen). […] BRET measurements were taken at 37° C. using the LUMlstarTM or CLARIOstarTM (BMG Labtech). Filtered light emissions were measured for 1 s in each of the 'donor wavelength window' (460-490 nm for LUMlstarTM or 410-490 nm for CLARIOstarTM) and 'acceptor wavelength window' (520-550 nm for LUMlstarTM or 520-620 nm for CLARIOstarTM). The BRET signal observed between interacting proteins is normalized by subtracting the background BRET ratio. This can be done in one of two ways (see Pfleger et al. (2006) Cell Signal 18:1664-1670; Pfleger et al. (2006) Nat Protoc 1:336-344): 1) the ratio of the 520-550 nm or 520-620 nm emission over the 460-490 nm or 410-490 nm emission for a cell sample containing only the donor construct is subtracted from the same ratio for a sample containing the interacting acceptor and donor fusion proteins; 2) the ratio of the 520-550 nm or 520-620 nm emission over the 460-490 nm or 410-490 nm emission for a cell sample treated with vehicle is subtracted from the same ratio for a second aliquot of the same cell sample treated with ligand. […]
On the technique in general: BRET reads energy transfer from a luciferase to a nearby fluorophore.

Assay [2] deals with T1, AT1R-CXCR2 heteromer. The experiment in a line: BRET trafficking of CXCR2/Rluc8 (Venus/Kras, Rab5, Rab8) with HA-AT1R, pre-treatment with vehicle or antagonists/inverse agonists. The class given is cell-based. As for the experimental part: HEK293FT cells were seeded in 6-well plates at a density of approximately 700,000 cells/well and maintained at 37° C., 5% CO2 in Complete Media (DMEM containing 0.3 mg/ml glutamine, 100 IU/ml penicillin and 100 μg/ml streptomycin (Gibco/Thermo Fisher)) supplemented with 10% fetal calf serum (FCS; Bovogen). Transient transfections were carried out 24 h after seeding using FuGene6™ (Promega) according to manufacturer instructions. 24 h post-transfection, cells were washed with PBS, detached using 0.05% trypsin/0.53 mM EDTA, resuspended in HEPES-buffered phenol red free Complete Media containing 5% FCS and added to a poly-L-lysine-coated white 96-well microplate (Greiner Bio-One). 48 h post-transfection, bioluminescence resonance energy transfer (BRET) assays were carried out following pre-incubation of cells with EnduRen™ (Promega) at a final concentration of 30 μM, at 37° C., 5% CO2 for 2 h. BRET measurements were taken at 37° C. using the LUMlstar™ or CLARIOstar™ (BMG Labtech).
For antagonist/inverse agonist assays, cells were pre-incubated with EnduRen for 1.5 hours, followed by the addition of vehicle or antagonists/inverse agonists (10 μM) for another 30 minutes.
The BRET signal observed between interacting proteins is normalized by subtracting the background BRET ratio. […] In the following examples, the second calculation will be used and the signal is described as ligand-induced BRET′. Furthermore, for data shown in FIGS. 4 to 20, all data points in a given set are corrected relative to the final data point prior to agonist treatment, which is fixed to zero. In keys on FIGS. 7 to 20, “>” means “followed by after 50 minutes”, with agonists added at time zero on the x-axes.
Prior to agonist treatment (added at 0 minutes), a baseline BRET signal was recorded for each of the combinations for 20 minutes. Data were calculated as ligand-induced BRET relative to the ‘vehicle followed by vehicle’ (veh>veh) data set.

Regarding Angiotensin II [AngII], at AT1R-CXCR2 heteromer [1], the “ligand-induced BRET signal, CXCR2/Rluc8 and Venus/mGsi” value is reported as “approximately 0.05”. At AT1R-CXCR2 heteromer [2], the “proximity of CXCR2/Rluc8 to Venus/Kras (BRET)” value was “increased proximity”, the “proximity of CXCR2/Rluc8 to Venus/Rab5 (BRET)” value is listed as “very small increase” and the “proximity of CXCR2/Rluc8 to Venus/Rab8 (BRET)” value was “clear increase”.
